Patent US5877185A, “Synergistic compositions useful as anti-tumor agents” (priority 1995, dated 1999)
“Also recorded” adds a separate entry of the source.

How the values were obtained:
[1] = system: SIVmac239 or virus isolates in CEM ×174 cells; assay: SIV replication in CEM ×174 cells, SIV p27 core antigen assay; assay type: cell-based
Text: Infected cell cultures described in FIG. 4 were used for determination of supernatant virus titers by SIV p27 core antigen assay as described in Example XIV. The ordinate represents p27 ELISA performed on day 10 of the assay and the abscissa represents the concentration of INO2 BA alone (rear rows in panels A, B and C) and in combination with BSO (front rows in panels A, B and C).
CEM ×174 cells (3×10^5 /ml) were infected with 3.75 TCID50 /ml (50% tissue culture infectious dosage per ml of cell suspension) stock solution of SIVmac239 or virus isolates from SIVmac239-infected rhesus macaques on day 0. Uniform infection of cells was ensured by the infection of one cell population only per virus preparation. Three days post-infection, the cells were distributed (500 μl/well) into individual wells of a 24-well plate. Fresh medium containing INO2 BA concentrations ranging from 0 to 300 μM and/or BSO concentrations ranging from 0 to 0.25 mM were added to establish final 1-ml reaction volumes, and the cultures were further incubated for 4 days. The wells were then replenished with fresh CEM ×174 cells (3×10^5 /ml), INO2 BA and/or BSO were re-added at the same concentrations as in the original incubates, and incubation was continued for an additional 3 days. This procedure intends to mimic conditions of in vivo chemotherapy. Cell viability and virus titers in the supernatant were determined on day 10 (3 days after the addition of new cells) by the tetrazolium (MTT) method of Hansen et al., J. Immunol. Methods 119:208-210 (1982) and by the SIV p27 and reverse transcriptase (RT) assays described by Chuang et al., FEBS Lett. 326:140-144 (1993), respectively.
SIVmac p27 core antigen levels were determined by an enzyme immunoassay provided by Coulter Corp. (Hialeah, Fla.). The assay was performed according to the manufacturer's specifications.

Molt-4 cells = assay: time course of cell killing alone and with BSO, Molt-4; assay type: cell-based; settings: Molt-4, 2-3 day period; 4 μM drug, 1 mM BSO
Protocol: (§1) Molt 4-cells were seeded at a density of 0.05×10^6 cell/ml in the recommended growth medium in the absence or the presence of drugs as indicated. Cells were incubated at 37° C. in a 5% CO2 atmosphere and proliferation was monitored in 14 hr. by cell counting in a hemacytometer. .smallcircle., untreated control; .circle-solid., treated with 4 μM 4-iodo-3-nitrobenzoic acid; .gradient., treated with 1 mM BSO; .tangle-soliddn., treated with 4 μM-iodo-3-nitrobenzoic acid and 1 mM BSO; .quadrature., treated with 4 μM 4-INO2 BA; .box-solid., treated with 1 mM BSO; .gradient., treated with 4 μM INO2 BA and 1 mM BSO. L-1210 cells were seeded at a density of 0.05×10^6 cells/ml either from untreated stock suspensions or from 24-hr. pretreated (0.2×10^6 cells/ml) suspensions. .smallcircle., untreated control; .circle-solid., treated with […] NOBA; .gradient., treated with 1 mM BSO; .tangle-soliddn., 24-hr pretreatment with 1 mM BSO then treated with 4 μM NOBA.
(§2) A time course of the cell killings by 4-iodo-3-nitrobenzoic acid, INO2 BA and NOBA, each alone and in combination with BSO was obtained. Molt-4 cells were seeded at a density of 0.05×10^6 cells/ml in the recommended growth medium in the absence or presence of drugs as indicated in FIG. 3. Drugs were added to the wells immediately after seeding from 10-40 mM stock solution in DMSO. BSO was added from a 100 mM aqueous stock solution. Cells were incubated at 37° C. in a 5% CO2 atmosphere and proliferation was monitored in 14 hours by cell counting in a hemacytometer.

[2] = literature; cited from earlier work
L-1210 cells = assay: time course of cell killing alone and with BSO, L-1210; assay type: cell-based, murine; settings: L-1210, 2-3 day period; 1 mM BSO
Protocol: as §1, §2

[3] = system: SIV 22803 (AZT-resistant); assay: AZT-resistant SIV propagation (syncytia formation), SIV 22803; assay type: cell-based; settings: INO2 BA 0, BSO 0.05 mM
Protocol: (§3) CEM × 174 (3 × 10^5 /ml) were infected with equal doses o
(§4) SIVmac239 or virus isolates from SIVmac239infected rhesus macaques (MMU
(§5) 23686, 22803). Three days postinfection, INO2 BA concentrations
(§6) ranging from 0 to 300 μM with or without BSO were added, and incubated
(§7) for an additional 3 days. Cell cultures were then examined for syncytia
(§8) formation. The number of syncytia in cell cultures was counted in
(§9) arbitration fields under 40× magnification and scored as follows: […]

cellular GSH = cellular GSH levels under BSO; assay type: cell-based; settings: at the concentrations applied
Protocol: The role of cellular GSH was determined by the simultaneous addition of INO2 BA and BSO (an inhibitor of GSH biosynthesis, Meister, Pharmacology and Therapeutics 51:155-194 (1991), which at the concentrations applied diminished cellular GSH levels below 5-10% of controls.) The results are tabulated below in Table 3.

[4] = system: SIV 23686 (AZT-resistant); assay: AZT-resistant SIV propagation (syncytia formation), SIV 23686; assay type: cell-based; settings: INO2 BA 0, BSO 0.01 mM
Protocol: as §3, §4, §5, §6, §7, §8, §9

tumor cells = settings: Hakam et al.; cited from earlier work
MDA 468 = assay: effect of nitroso- and nitro-compounds in mammary cancer cells (monolayer), MDA 468; assay type: cell-based, human; settings: drug exposure 24-48 hours
Protocol: II. I50 and LD100 Values for Nitroso- and Nitro-Compounds in (A) Mammary Cancer Cells (monolayer cultures) and in (B) L-1210 Murine Leukemia Cells (suspension culture).
Seeding was at 2×10^4 or 0.8×10^4 cells/cm^2, drugs were added 6-18 hours after seeding, and drug exposure time was 24-48 hours.

[5] = weakly basic conditions; cited from earlier work
[6] = reduction by GSH and ascorbate in in vitro chemical tests; assay type: physicochemical
pADPRT [7] = assay: pADPRT zinc content / zinc ejection; assay type: biochemical; settings: 25° C.
Protocol: FIG. 2A is a graph comparing the effects of NOBA and INOBA on the enzyme activity and zinc content of pADPRT. Inactivation was performed as described in Example III. In these experiments ^65 Zn^2+ -labeled pADPRT was used. The Zn^2+ content of pADPRT (upper panel) was determined as follows: two parallels of aliquots (4 μl) were pipetted into 500 μl of ice-cold washing solution (50 mM Tris, pH 7.7, 10 mM 2-mercaptoethanol and 0.5 mM EDTA) then filtered onto GF/C disks presoaked in washing solution (cold), quickly washed 4 times with 1 ml of ice-cold washing solution, dried, and the radioactivity determined. The protein-bound ^65 Zn^2+ is shown as percent of the untreated sample. Enzyme assays (lower panel) were performed as in FIG. 1.
For the release of Zn^2+ from transblotted pADPRT, the enzyme (3 μg per lane) was separated on SDS-PAGE, transblotted onto a nitrocellulose membrane, and renatured in the presence of ^65 ZnCl2. […] After incubation, 1 ml of the supernatant was counted for radioactivity, and the strips were washed 3 times with 2 ml of 50 mM Tris-HCl pH 7.4), 0.5 mM EDTA and 10 Mm 2-mercaptoethanol, and then dried and exposed to X-ray film. The intensity of the autoradiographic spots was quantitated by a scanner. […]

pADPRT [8] = assay: pADPRT enzyme inactivation; assay type: biochemical; settings: 2 hr at 25° C.
Protocol: FIG. 1 is a graph comparing the inactivation of pADPRT by NOBA and INOBA. pADPRT inactivation was performed in 20-μl volumes of buffer containing 50 mM Hepes (pH 7.4), 100 mM KCl, 0.5 mM EDTA, pADPRT (0.4 μg/μl) and different concentrations of inactivators. Inactivators were serially diluted in the above buffer from a 20 mM stock solution in DMF. The DMF concentration (2.5%) was kept constant in the inactivation mixes. After 2 hr. at 25° C., aliquots (3 μl) were removed for assay of enzyme activity in a volume of assay mix (200 μl) in which the inactivators were dilute enough not to act as inhibitors. The assay mix consisted of 100 mM Tris (pH 7.7), 14 mM 2-mercaptoethanol, 0.1 mM [^32 P]-NAD^+, 0.2 mg/ml coDNA and 0.1 mg/ml histones. The incorporated ^32 P, proportional to enzyme activity, is plotted as percent of the untreated sample.
NOBA and INOBA were assayed for their respective effects on pADPRT enzyme inactivation and pADPRT zinc content according to the methods described in Buki et al., FEBS Lett. 290:181-185 (1991) at pH 7.0. pADPRT inactivation was performed in 20-μl volumes of buffer containing 50 mM Hepes (pH 7.4), 100 mM KCl, 0.5 mM EDTA, pADPRT (0.4 μg/μl) and different concentrations of inactivators. Inactivators were serially diluted in the above buffer from a 20 mM stock solution in DMF. The DMF concentration (2.5%) was kept constant in the inactivation mixes. […]

## CCCCS(=N)(=O)CCC(N)C(=O)O (racemic) [BSO, DL-buthionine sulfoximine, reference compound]
[1]; BSO alone, FIG. 5D
  effect on p27 formation / SIV replication: no effect
Molt-4 cells
  effect on cell proliferation: no significant effect
[2]
  toxicity of BSO: very low; also recorded: non-toxicity
L-1210 cells
  effect on cell proliferation: no significant effect
[3]
  Syncytia: ++++ (over 30)
Cellular GSH
  cellular GSH level: 5-10 % of controls
[4]
  Syncytia: +++ (20-30)

## Nc1ccc2oc(=O)ccc2c1 [6-amino-1,2-benzopyrone]
Tumor cells
  anti-tumor effects: anti-tumor effects

## O=c1ccc2c(I)c([N+](=O)[O-])ccc2o1 [INO2 BP, 5-iodo-6-nitro-1,2-benzopyrone]
MDA 468
  I50: 260 Namomoles/cm × 10^4 cells

## NC(=O)c1cccc(N(O)S(=O)(=O)CC(N)C(=O)O)c1 (centres unmarked)
[5]
  release of C-nitroso molecule: releases the C-nitroso molecule at weakly basic conditions

## NC(=O)c1ccc(I)c(N=O)c1 [INOBA, 4-Iodo-3-Nitrosobenzamide]
[6]
  reduction to the corresponding hydroxyl amines: rapidly reduced
[1]; with BSO, CEM ×174 cells
  effect of GSH depletion by BSO on inhibitory effect on SIV replication: synergistically enhances
pADPRT [7]
  time in which zinc ejection was complete: ≤ 2 h
pADPRT [8]
  inactivation of pADPRT, NOBA vs INOBA: more effective inactivator of pADPRT
